Where “and” joins values, the source holds several entries; their conditions need not be identical. Equal values may be shown once.
Key:
[1] = system: mesenchymal stem cells derived from human umbilical cord; assay: Induction of pluripotency stem cells from mesenchymal stem cells (colony formation); type: cell-based; settings: DMEM F-12 basic medium plus 0.1 v/v % energy water
Procedure: An experiment for measuring induction ability of pluripotency stem cells from mesenchymal stem cells derived from human umbilical cord according to a concentration of the phlorotannin fraction prepared in Example 1-1 was performed. In a control group, DMEM F-12 (Gibco) as a dedicated medium of MSC, 10% FBS, 100 unit/ml penicillin, and 50 μg/ml streptomycin were used as a basic medium (Normal), and in an experimental group, mesenchymal stem cells derived from human which was subjected to three sub-cultures were used and phlorotannin fractions having concentrations of 1 μg/ml, 20 μg/ml, 50 μg/ml, 100 μg/ml, 400 μg/ml, 800 μg/ml, and 1000 μg/ml and 0.1 v/v % energy water (purified deionized water containing SiO2, Al2O3, TiO3, Fe2O3, CaO, Na2O, K2O, and LiO, STC) were added in the medium. The mesenchymal stem cells derived from human umbilical cord were isolated and washed and mononuclear cells were inoculated in a 6-well plate (dish) with 1×10^4 cells and maintained and incubated at 37° C. and 5% CO2.
An experiment for measuring induction ability of pluripotency stem cells from mesenchymal stem cells derived from human according to a concentration of compound 1 among the compounds isolated in Example 1-2 was performed. […]

[2] = system: OCT4, SOX2, SSEA-4, and AP; assay: Immunochemical / AP staining of induced colonies for pluripotency stem cell-specific markers; type: cell-based, human; settings: confocal microscopy; antibodies for OCT4, SOX2, SSEA-4; AP fluorogenic dye
Procedure: With respect to the pluripotency stem cells induced by the method of the present invention, whether to express stage-specific embryonic antigen4 (SSEA-4), alkaline phosphatase (AP), OCT4, and SOX2 as specific proteins to embryonic stem cells was analyzed by using antibodies thereof and an immunochemical staining method. During the staining process, cells were first fixed by using 4% paraformaldehyde and washed with PBS, and blocked with a 1% BSA solution. The cells were treated with primary antibodies for OCT4, SOX2, and SSEA-4 and reacted at 4° C. for 18 hours, and then washed with PBS, treated with secondary antibodies with fluorescence (FITC) to the primary antibodies, and reacted at room temperature for 1 hour. The cells were washed with PBS and then the expression was analyzed by using a confocal microscope. […] AP staining was performed with an alkaline phosphatase cell-permeable fluorogenic substrate dye, the AP fluorogenic dye was diluted in a DMEM F-12 culture solution to be treated in colonies, and then reacted for 20 to 30 min, washed with the DMEM F-12 culture solution two times, and the expression was analyzed by using a confocal microscope, and the result was illustrated in FIG. 17. […]

## Oc1cc(O)cc(Oc2c(O)cc(O)c3c2Oc2c(O)cc(O)c(-c4c(O)cc(O)c5c4Oc4c(O)cc(Oc6c(O)cc(O)cc6O)c(Oc6cc(O)cc(O)c6)c4O5)c2O3)c1 [compound 1, 2-O-(2,4,6-trihydroxyphenyl)-6,6′-bieckol]
[1]; at the colony-forming concentrations
  time after which colony formation was observed: 14 days
[1]; tested 1, 20, 50, 100, 400, 800, 1000 μg/ml, colonies only at stated concentrations
  concentration at which colonies were formed: 50 µg/mL and 100 µg/mL
[2]
  staining of colonies by pluripotency stem cell-specific markers: stained by OCT4, SOX2, SSEA-4, and AP
